# “Also recorded” adds a separate entry of the source. Structures can show the parent of a compound that is named as a salt. Where two headings read alike, the source gives them in different places.
# Legend:
# Assay type in all cases: cell-based
# [1] = system: T-47D human breast cancer cell line; assay: cells; conditions: for IC50: read-out: Cytotoxicity, IC50, T-47D; for Selectivity Index (SI), T-47D: ratio of IC50 for healthy (MCF-10A) and cancer cells
# [2] = system: human breast cancer cell lines MCF-7, T-47D and MDA-MB-231; assay: Cytotoxic activity (MTT assay), statements on the human breast cancer cell lines together; conditions: MCF-7, T-47D, MDA-MB-231; concentration range up to 50 µM
# From the text: Human erythrocytes were purchased from the Station of Blood Transfusion, Vladivostok. Human mammary epithelial cell line MCF-10A CRL-10317, human breast cancer cell lines T-47D HTB-133, MCF-7 HTB-22, and MDA-MB-231 CRM-HTB-26 were received from ATCC (Manassas, VA, USA). Culturing conditions: medium of RPMI-1640 with 1% penicillin/streptomycin (Biolot, St. Petersburg, Russia) and 10% fetal bovine serum (FBS) (Biolot, St. Petersburg, Russia) for T-47D cell line; Minimum Essential Medium (MEM) with 1% penicillin/streptomycin sulfate (Biolot, St. Petersburg, Russia) and FBS (Biolot, St. Petersburg, Russia) to a final concentration of 10% for MCF-7 and MDA-MB-231 cells; DMEM/F12 medium with 10% FBS, 20 ng/mL EGF, […], 100 ng/mL cholera toxin, 10 μg/mL insulin, and 1% penicillin/streptomycin (Bioinnlabs, Russia) for MCF-10A cell line.
# Methodology: to each well of 96-well plates, the cell suspension (180 µL) with solution (20 µL) of tested glycoside in the certain concentration was placed (MCF-10A, MCF-7, T-47D, and MDA-MB-231—7 × 10^3 cells per well) and incubated in the atmosphere with 5% CO2 at 37 °C for 24 h. The times of incubation of cucumarioside A2-5 (6) and djakonoviosides C1 (1) and E1 (3), at concentrations of 0.5–12.0 μM with T-47D, MCF-7, or MDA-MB-231 cells, were 24, 48, and 72 hrs. Then, the solutions of tested compounds with medium were replaced by 100 µL of fresh medium, and 10 µL of 3-(4,5-dimethylthiazol-2-yl)-2,5-diphenyltetrazolium bromide (MTT) (PanReac, AppliChem, Darmstadt, Germany) stock solution (5 mg/mL) was added to each well and incubated for 4 h, followed by the addition of 100 µL of SDS-HCl solution (1 g SDS/10 mL d-H2O/17 µL 6 N HCl) and further incubated for 18 h. Multiskan FC microplate photometer (Thermo Fisher Scientific, Waltham, MA, USA) was used to measure the absorbance of the converted dye formazan at 570 nm. The concentration caused 50% cell metabolic activity inhibition (IC50), which expresses the cytotoxic activity of each glycoside. The experiments were conducted in triplicate, p ≤ 0.05.
# human erythrocytes = assay: Hemolytic activity against human erythrocytes; conditions: for HC50: Erythrocyte, read-out: ED50, Erythrocytes (hemolytic activity); for hemolytic activity (in words): concentration range up to 50 µM
# Experimental: Human blood (B(III) Rh+) was used to obtain erythrocytes by centrifuging 450× g three times for 5 min with phosphate-buffered saline (PBS) (pH 7.4) at 4 °C on centrifuge LABOFUGE 400R (Heraeus, Hanau, Germany). Ice-cold PBS (pH 7.4) was used for resuspension of erythrocytes residue to a final optical density of 1.5 at 700 nm, which was kept on ice. Then, 20 µL of tested compound solution or control—djakonovioside A1 [5]—were added to 180 µL of erythrocyte suspension in V-bottom 96-well plates and exposed for 1 h at 37 °C. Next, centrifugation at 900× g for 10 min on laboratory centrifuge LMC-3000 (Biosan, Riga, Latvia), led to layers’ separation, and 100 µL of supernatant was carefully decanted and transferred into new flat-plate each. The values of erythrocyte lysis were measured on microplate photometer Multiskan FC (Thermo Fisher Scientific, Waltham, MA, USA) at λ = 570 nm as hemoglobin concentration in supernatant. The effective dose, causing lysis of 50% erythrocytes (ED50), was calculated with SigmaPlot 14.0 software. All the experiments were carried out in triple repetitions, p ≤ 0.05.
# in vitro = conditions: human
# [3] = system: triple-negative MDA-MB-231 human breast cancer cell line; assay: cells; conditions: for IC50: read-out: Cytotoxicity, IC50, MDA-MB-231; for Selectivity Index (SI), MDA-MB-231: ratio of IC50 for healthy (MCF-10A) and cancer cells
# [4] = system: MCF-7 human breast cancer cell line; assay: cells; conditions: for IC50: read-out: Cytotoxicity, IC50, MCF-7; for Selectivity Index (SI), MCF-7: ratio of IC50 for healthy (MCF-10A) and cancer cells
# [5] = human erythrocytes, 1 h at 37 °C, dose causing lysis of 50% erythrocytes
SMILES,HC50 (human erythrocytes; [5]),hemolytic activity (in words) (human erythrocytes; human erythrocytes),"Selectivity Index (SI), T-47D [1]","Selectivity Index (SI), MDA-MB-231 [3]","Selectivity Index (SI), MCF-7 [4]","IC50 ([1]; Homo sapiens, T47D, 24 h)",IC50 at 24 h (in vitro),"IC50 ([3]; Homo sapiens, MDA-MB-231, 24 h)","IC50 ([4]; Homo sapiens, MCF7, 24 h)",also measured
COC1C(O)C(CO)OC(OC2C(O)C(COS(=O)(=O)O)OC(OC3C(C)OC(OC4C(OC5CCC6(C)C7CCC8(C)C(C(C)=O)CCC8(C)C7=CCC6C5(C)C)OCC(OS(=O)(=O)O)C4O)C(OC4OCC(O)C(O)C4O)C3O)C2O)C1O (stereo not shown) [cucumarioside A3-2],17.9 ± 0.48 µM,moderate hemolytic activity; also recorded: low hemolytic activity,–,–,–,–,–,–,–,"IC50 ([1]; Homo sapiens, T47D, MTT, 24 h incubation): > 50 µM; cytotoxic activity against human tumor cell lines (in words) [2]: not active; IC50 (in vitro; MTT, 24 h incubation, read-out: Cytotoxicity, IC50, MCF-10A): > 50 µM; IC50 ([3]; Homo sapiens, MDA-MB-231, MTT, 24 h incubation): > 50 µM; IC50 ([4]; Homo sapiens, MCF7, MTT, 24 h incubation): > 50 µM"
"CO[C@@H]1[C@@H](O)[C@H](O[C@@H]2[C@@H](O)[C@H](O[C@H]3[C@H](O)[C@@H](O)[C@H](O[C@H]4[C@H](O[C@H]5CC[C@]6(C)[C@@H]7CCC89C(=O)O[C@@](C)(C[C@@H](O)CC(C)C)[C@H]8[C@@H](OC(C)=O)C[C@@]9(C)C7=CC[C@H]6C5(C)C)OC[C@@H](OS(=O)(=O)O)[C@@H]4O)O[C@@H]3C)OC[C@H]2O)O[C@H](CO)[C@H]1O (stereo partly shown) [djakonovioside A1, reference compound]",–,–,1.15,1.45,0.66,–,–,–,–,"IC50 ([1]; MTT, 24 h incubation): 15.2 ± 0.96 µM; ED50, Erythrocytes (hemolytic activity) (human erythrocytes; [5]): 2.52 ± 0.23 µM; IC50 ([3]; MTT, 24 h incubation): 12.1 ± 0.54 µM; IC50 ([4]; MTT, 24 h incubation): 26.43 ± 0.14 µM"
"COC1C(O)C(CO)OC(OC2C(O)C(CO)OC(OC3C(CO)OC(OC4C(OC5CCC6(C)C7CCC89C(=O)OC(C)(CCC=C(C)C)C8C(OC(C)=O)CC9(C)C7=CCC6C5(C)C)OCC(OS(=O)(=O)O)C4O)C(OC4OCC(O)C(O)C4O)C3O)C2O)C1O [djakonovioside D1, 3β-O-{3-O-methyl-β-D-glucopyranosyl-(1→3)-β-D-glucopyranosyl-(1→4)-[(1→2)-β-D-xylopyranosyl]-β-D-glucopyranosyl-(1→2)-4-O-sodium sulfate-β-D-xylopyranosyl}-16β-acetoxyholosta-7,24-dien]",7.74 ± 0.37 µM,–,–,–,–,> 50 µM,> 50 µM,> 50 µM,> 50 µM,"hemolytic activity (in words) (human erythrocytes; human erythrocytes, listed as D1): slightly lower but significant; hemolytic activity (in words) (human erythrocytes; human erythrocytes, listed as Djakonovioside D1): moderate hemolytic activity; also recorded: slightly less hemolytic"
"COC1C(O)C(COS(=O)(=O)O)OC(OC2C(O)C(COS(=O)(=O)O)OC(OC3C(C)OC(OC4C(OC5CCC6(C)C7CCC8(C)C(C(C)(O)C(=O)CC=C(C)C)CCC8(C)C7=CCC6C5(C)C)OCC(OS(=O)(=O)O)C4O)C(OC4OCC(O)C(O)C4O)C3O)C2O)C1O [djakonovioside F1, 3β-O-{6-O-sodium sulfate-3-O-methyl-β-D-glucopyranosyl-(1→3)-6-O-sodium sulfate-β-D-glucopyranosyl-(1→4)-[(1→2)-β-D-xylopyranosyl]-β-D-quinovopyranosyl-(1→2)-4-O-sodium sulfate-β-D-xylopyranosyl}-(20R)-hydroxy-22-oxo-lanosta-7,24-dien]",–,high hemolytic effect,1.02,1.16,0.63,22.5 ± 1.78 µM,23.2 ± 0.78 µM,20 ± 0.63 µM,36.8 ± 0.73 µM,"HC50 (human erythrocytes; Homo sapiens, 1 h): 0.51 ± 0.01 µM"
C=C(C)CCCC1(C)OC(=O)C23CCC4C(=CCC5C(C)(C)C(OC6OCC(OS(=O)(=O)O)C(O)C6OC6OCC(OC7OC(CO)C(O)C(OC8OC(CO)C(O)C(OC)C8O)C7O)C(O)C6OC6OCC(O)C(O)C6O)CCC45C)C2(C)CC(OC(C)=O)C13 (stereo not shown) [djakonoviosides C1],–,slightly lower but significant,–,–,–,–,–,–,–,–
COC1C(O)C(CO)OC(OC2C(O)C(CO)OC(OC3C(C)OC(OC4C(OC5CCC6(C)C7CCC89C(=O)OC(C)(CC=CC(C)(C)O)C8C(OC(C)=O)CC9(C)C7=CCC6C5(C)C)OCC(OS(=O)(=O)O)C4O)C(OC4OCC(O)C(O)C4O)C3O)C2O)C1O (stereo not shown) [frondoside A2-3],> 50 µM,absence of the activity,–,–,–,> 50 µM,> 50 µM,> 50 µM,> 50 µM,"hemolytic activity (in words) (human erythrocytes; human erythrocytes, listed as Frondoside A2-3): did not show hemolytic or cytotoxic activity"
COC1C(O)C(COS(=O)(=O)O)OC(OC2C(O)C(COS(=O)(=O)O)OC(OC3C(C)OC(OC4C(OC5CCC6(C)C7=CCC8(C)C(C(C)=O)CCC8(C)C7CCC6C5(C)C)OCC(OS(=O)(=O)O)C4O)C(OC4OCC(O)C(O)C4O)C3O)C2O)C1O (stereo not shown) [isokoreoside A],17.4 ± 0.57 µM,moderate hemolytic activity; also recorded: low hemolytic activity,–,–,–,> 50 µM,> 50 µM,> 50 µM,> 50 µM,–
COC1C(O)C(COS(=O)(=O)O)OC(OC2C(O)C(COS(=O)(=O)O)OC(OC3C(C)OC(OC4C(OC5CCC6(C)C7CCC8(C)C(C(C)=O)CCC8(C)C7=CCC6C5(C)C)OCC(OS(=O)(=O)O)C4O)C(OC4OCC(O)C(O)C4O)C3O)C2O)C1O (stereo not shown) [koreoside A],> 50 µM,did not show hemolytic or cytotoxic activity; also recorded: complete loss of the activity,–,–,–,> 50 µM,> 50 µM,> 50 µM,> 50 µM,–
C=C(C)CCCC1(C)OC(=O)C23CCC4C(=CCC5C(C)(C)C(OC6OCC(OS(=O)(=O)O)C(O)C6OC6OC(CO)C(OC7OC(CO)C(O)C(OC8OC(CO)C(O)C(OC)C8O)C7O)C(O)C6OC6OCC(O)C(O)C6O)CCC45C)C2(C)CC(OC(C)=O)C13 (stereo not shown) [okhotoside A2-1],1.53 ± 0.14 µM,–,1.03,0.97,0.31,11.9 ± 0.42 µM,12.2 ± 0.16 µM,12.6 ± 0.16 µM,39.81 ± 0.18 µM,–

# Source: publication PMC10744391, “Sulfated Triterpene Glycosides from the Far Eastern Sea Cucumber Cucumaria djakonovi: Djakonoviosides C1, D1, E1, and F1; Cytotoxicity against Human Breast Cancer Cell Lines; Quantitative Structure–Activity Relationships” (Marine Drugs, 2023)
